The source of these data is patent publication US8614211B2, “Certain chemical entities, compositions, and methods” (NeuPharma, Inc., priority 2011, dated 2013).

For this experiment, the system named is A549 cells. Description: Inhibition of cell growth in tumor cells, MTT assay. In kind it is cell-based. The settings on record: Homo sapiens, read-out: A549 cell IC50. The method, then:
Inhibition of cell growth by compounds was measured using MTT assay (Mosmann, T., Journal of Immunological Methods, 1983, 65, 55-63). Tumor cell lines were purchased from ATCC (American Type Culture Collection, Manassas, Va.). All cell lines were maintained in RPMI 1640 (Hyclone) supplemented with 10% fetal bovine serum (FBS, Hyclone), glutamine (2 mM, Hyclone), and antibiotics (penicillin 100 U/mL and streptomycin 50 μg/mL) at 37° C. in a humidified atmosphere of 5% CO2 in air. Taxol (positive control, Sigma) and compounds were dissolved in DMSO (Sigma), and the final concentration of DMSO in the medium was 1%. Tumor cells were plated in 96-well plates at densities from 4000 cells/well of a 96-well plate and allowed to adhere/grow for 24 h. They were then treated with various concentrations of drug for 72 h. 3-(4,5-Dimethylthiazol-2-yl)-2,5-diphenyltetrazolium bromide (MTT, Sigma) was used to determine the number of viable cells at the time of compound addition and the number of cells remaining after 72 h compound exposure. The number of cells remaining after 72 h was compared to the number of viable cells at the time of compound addition by measuring the absorbance at 570 nm, allowing for the calculation of growth inhibition.
All concentrations of compounds were tested in triplicate and controls were averaged over 4 wells. IC50 was calculated by plotting the concentration of compound vs the percentage of inhibition in treated wells using GraphPad Prism 5. […]

The mark [1] stands for this setting: MTT assay, 72 h compound exposure, A549 cells.

Read-outs that look alike come from different tables or passages of the source.

By IC50 is commonly meant the midpoint of a concentration-inhibition curve. For the compound `COCCN(C)C(=O)Oc1ccc(C[C@H]2C(=O)OC[C@@H]2Cc2ccc(OC)c(OC)c2)cc1OC` [4-(((3R,4R)-4-(3,4-dimethoxybenzyl)-2-oxotetrahydrofuran-3-yl)methyl)-2-methoxyphenyl (2-methoxyethyl)(methyl)carbamate], for the setting “A549, 72 h”, the IC50 came out at 687 nM.
For `COCCN1CCN(C(=O)Oc2ccc(C[C@H]3C(=O)OC[C@@H]3Cc3ccc(OC)c(OC)c3)cc2OC)CC1` [4-(((3R,4R)-4-(3,4-dimethoxybenzyl)-2-oxotetrahydrofuran-3-yl)methyl)-2-methoxyphenyl 4-(2-methoxyethyl)piperazine-1-carboxylate], the IC50 (A549, 72 h) is 788 nM.
In the case of `COc1ccc(C[C@H]2COC(=O)[C@@H]2Cc2ccc(OC(=O)N(C)C)c(OC)c2)cc1OC` [4-(((3R,4R)-4-(3,4-dimethoxybenzyl)-2-oxotetrahydrofuran-3-yl)methyl)-2-methoxyphenyl dimethylcarbamate], under “A549, 72 h”, the IC50 was determined as 521 nM.
As for `COc1ccc(C[C@H]2COC(=O)[C@@H]2Cc2ccc(OC(=O)N(C)CCO)c(OC)c2)cc1OC` [4-(((3R,4R)-4-(3,4-dimethoxybenzyl)-2-oxotetrahydrofuran-3-yl)methyl)-2-methoxyphenyl (2-hydroxyethyl)(methyl)carbamate], the IC50 (A549, 72 h) amounted to 1070 nM.
For `COc1ccc(C[C@H]2COC(=O)[C@@H]2Cc2ccc(OC(=O)N(C)CCN(C)C)c(OC)c2)cc1OC` [4-(((3R,4R)-4-(3,4-dimethoxybenzyl)-2-oxotetrahydrofuran-3-yl)methyl)-2-methoxyphenyl (2-(dimethylamino)ethyl)(methyl)carbamate], the IC50 (A549, 72 h) was found to be 1020 nM.
Regarding `COc1ccc(C[C@H]2COC(=O)[C@@H]2Cc2ccc(OC(=O)N3CCCC3)c(OC)c2)cc1OC` [4-(((3R,4R)-4-(3,4-dimethoxybenzyl)-2-oxotetrahydrofuran-3-yl)methyl)-2-methoxyphenyl pyrrolidine-1-carboxylate], the IC50 under setting [1] was determined as 785 nM.
On the same count and under the same terms, with `COc1ccc(C[C@H]2COC(=O)[C@@H]2Cc2ccc(OC(=O)N3CC[C@@H](O)C3)c(OC)c2)cc1OC` [(R)-4-(((3R,4R)-4-(3,4-dimethoxybenzyl)-2-oxotetrahydrofuran-3-yl)methyl)-2-methoxyphenyl 3-hydroxypyrrolidine-1-carboxylate] the figure was 587 nM; with `COc1ccc(C[C@H]2COC(=O)[C@@H]2Cc2ccc(OC(=O)N3CCCCC3)c(OC)c2)cc1OC` [4-(((3R,4R)-4-(3,4-dimethoxybenzyl)-2-oxotetrahydrofuran-3-yl)methyl)-2-methoxyphenyl piperidine-1-carboxylate], 659 nM; with `COc1ccc(C[C@H]2COC(=O)[C@@H]2Cc2ccc(OC(=O)N3CC[C@@H](NC(=O)OC(C)(C)C)C3)c(OC)c2)cc1OC` [(R)-4-(((3R,4R)-4-(3,4-dimethoxybenzyl)-2-oxotetrahydrofuran-3-yl)methyl)-2-methoxyphenyl 3-((tert-butoxycarbonyl)amino) pyrrolidine-1-carboxylate], 585 nM.
On the same count and under the same terms, for `COc1ccc(C[C@H]2COC(=O)[C@@H]2Cc2ccc(OC(=O)N3CC[C@H](O)C3)c(OC)c2)cc1OC` [(S)-4-(((3R,4R)-4-(3,4-dimethoxybenzyl)-2-oxotetrahydrofuran-3-yl)methyl)-2-methoxyphenyl 3-hydroxypyrrolidine-1-carboxylate] the value was 841 nM.
Regarding `COc1ccc(C[C@H]2COC(=O)[C@@H]2Cc2ccc(OC(=O)N3CC[C@H](N)C3)c(OC)c2)cc1OC` [(S)-4-(((3R,4R)-4-(3,4-dimethoxybenzyl)-2-oxotetrahydrofuran-3-yl)methyl)-2-methoxyphenyl 3-aminopyrrolidine-1-carboxylate], the IC50 (A549, 72 h) is 923 nM.
For the compound `COc1ccc(C[C@H]2COC(=O)[C@@H]2Cc2ccc(OC(=O)N3CCOCC3)c(OC)c2)cc1OC` [4-(((3R,4R)-4-(3,4-dimethoxybenzyl)-2-oxotetrahydrofuran-3-yl)methyl)-2-methoxyphenyl morpholine-4-carboxylate], the IC50 under setting [1] was found to be 767 nM.
With `COc1ccc(C[C@H]2COC(=O)[C@@H]2Cc2ccc(OC(=O)N3CCNCC3)c(OC)c2)cc1OC` [4-(((3R,4R)-4-(3,4-dimethoxybenzyl)-2-oxotetrahydrofuran-3-yl)methyl)-2-methoxyphenyl piperazine-1-carboxylate], the IC50 (A549, 72 h) was 799 nM.
With `COc1ccc(C[C@H]2COC(=O)[C@@H]2Cc2ccc(OC(=O)N3CCN(C)CC3)c(OC)c2)cc1OC` [4-(((3R,4R)-4-(3,4-dimethoxybenzyl)-2-oxotetrahydrofuran-3-yl)methyl)-2-methoxyphenyl 4-methylpiperazine-1-carboxylate], where the note is “A549, 72 h”, the IC50 came to 850 nM.
